# Legend:
# SK-RC-52.hFAP tumors = test: Quantitative biodistribution in SK-RC-52.hFAP tumor bearing mice; format: in vivo, mouse (female athymic Balb/c AnNRj-Foxn1); details: i.v. 250 nmol/kg, 50 MBq/kg
# Method in brief: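 Female athymic Balb/c nude mice carried subcutaneous SK-RC-52.hFAP tumors (5 million cells, ~300 mm^3). 177Lu-labeled conjugates were given i.v. at 250 nmol/kg, 50 MBq/kg. Tissues gamma-counted at several time points as %ID/g±SD, tumor values corrected for growth rate; tumor-to-organ ratios derived.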
# [1] = Tolerability (body weight change) of 177Lu conjugates; format: in vivo, mouse (athymic Balb/c AnNRj-Foxn1); details: single administration, 250 nmol/kg, 250 MBq/kg
# Protocol: The anti-cancer efficacy of ^177Lu-ESV6, ^177Lu-Bi-ESV6 and ^177Lu-Tri-ESV6 was assessed in athymic Balb/c AnNRj-Foxn1 mice bearing SK-RC-52.hFAP tumor in the right flank. ^177Lu-ESV6, ^177Lu-Bi-ESV6 or ^177Lu-Tri-ESV6 were intravenously administered at a dose of 250 nmol/kg, 250 MBq/kg (single administration on day 9 after tumor implantation). Therapy experiments started when the average volume of established tumors had reached 100-150 mm^3. Body weight of the animals and tumor volume were daily measured and recorded. Tumor dimensions were measured with an electronic caliper and tumor volume was calculated with the formula (long side, mm)×(short side, mm)×(short side, mm)×0.5. Animals were euthanized when one or more termination criterium indicated by the experimental license was reached. Prism 7 software (GraphPad Software) was used for data analysis.
# [2] = 6 h post injection, listed as 177Lu-TriESV6-DOTAGA, 360 min
smiles,measurement,setting,value
N#CC1CC(F)(F)CN1C(=O)CNC(=O)c1ccnc2c(NC(=O)CCC(=O)NCCNC(=O)CCOCC(COCCC(=O)NCCNC(=O)CCC(=O)Nc3cccc4c(C(=O)NCC(=O)N5CC(F)(F)CC5C#N)ccnc34)(COCCC(=O)NCCNC(=O)CCC(=O)Nc3cccc4c(C(=O)NCC(=O)N5CC(F)(F)CC5C#N)ccnc34)NC(=O)CCC(C(=O)O)N3CCN(CC(=O)[O-])CCN(CC(=O)[O-])CCN(CC(=O)[O-])CC3)cccc12.[177Lu+3] (stereo not shown) [^177Lu-Tri-ESV6-DOTAGA],"Tumor to organs ratio, Blood",SK-RC-52.hFAP tumors; 6 h,260.4
same,"Injected dose per gram, Blood",SK-RC-52.hFAP tumors; 6 h post injection,0.25 % ID/g
same,"Tumor to organs ratio, Blood",SK-RC-52.hFAP tumors; 24 h,284.8
same,"Injected dose per gram, Blood",SK-RC-52.hFAP tumors; 24 h post injection,0.07 % ID/g
same,"Tumor to organs ratio, Blood",SK-RC-52.hFAP tumors; 48 h,1925.8
same,"Injected dose per gram, Blood",SK-RC-52.hFAP tumors; 48 h post injection,0.01 % ID/g
same,"Tumor to organs ratio, Blood",SK-RC-52.hFAP tumors; 72 h,7913.2
same,"Injected dose per gram, Blood",SK-RC-52.hFAP tumors; 72 h post injection,0.01 % ID/g
same,"Tumor to organs ratio, Blood",SK-RC-52.hFAP tumors; 96 h,3504
same,"Injected dose per gram, Blood",SK-RC-52.hFAP tumors; 96 h post injection,0.00 % ID/g
same,"Tumor to organs ratio, Heart",SK-RC-52.hFAP tumors; 6 h,215.4
same,"Injected dose per gram, Heart",SK-RC-52.hFAP tumors; 6 h post injection,0.23 % ID/g
same,"Tumor to organs ratio, Heart",SK-RC-52.hFAP tumors; 24 h,269.1
same,"Injected dose per gram, Heart",SK-RC-52.hFAP tumors; 24 h post injection,0.08 % ID/g
same,"Tumor to organs ratio, Heart",SK-RC-52.hFAP tumors; 48 h,559.6
same,"Injected dose per gram, Heart",SK-RC-52.hFAP tumors; 48 h post injection,0.03 % ID/g
same,"Tumor to organs ratio, Heart",SK-RC-52.hFAP tumors; 72 h,344.2
same,"Injected dose per gram, Heart",SK-RC-52.hFAP tumors; 72 h post injection,0.07 % ID/g
same,"Tumor to organs ratio, Heart",SK-RC-52.hFAP tumors; 96 h,492
same,"Injected dose per gram, Heart",SK-RC-52.hFAP tumors; 96 h post injection,0.03 % ID/g
same,"Tumor to organs ratio, Intestine",SK-RC-52.hFAP tumors; 6 h,188.9
same,"Injected dose per gram, Intestine",SK-RC-52.hFAP tumors; 6 h post injection,0.26 % ID/g
same,"Tumor to organs ratio, Intestine",SK-RC-52.hFAP tumors; 24 h,243.1
same,"Injected dose per gram, Intestine",SK-RC-52.hFAP tumors; 24 h post injection,0.10 % ID/g
same,"Tumor to organs ratio, Intestine",SK-RC-52.hFAP tumors; 48 h,282.6
same,"Injected dose per gram, Intestine",SK-RC-52.hFAP tumors; 48 h post injection,0.06 % ID/g
same,"Tumor to organs ratio, Intestine",SK-RC-52.hFAP tumors; 72 h,498.0
same,"Injected dose per gram, Intestine",SK-RC-52.hFAP tumors; 72 h post injection,0.07 % ID/g
same,"Tumor to organs ratio, Intestine",SK-RC-52.hFAP tumors; 96 h,763
same,"Injected dose per gram, Intestine",SK-RC-52.hFAP tumors; 96 h post injection,0.02 % ID/g
same,"Tumor to organs ratio, Kidney",SK-RC-52.hFAP tumors; 6 h,22.9
same,"Injected dose per gram, Kidney",SK-RC-52.hFAP tumors; 6 h post injection,2.14 % ID/g
same,"Tumor to organs ratio, Kidney",SK-RC-52.hFAP tumors; 24 h,17.2
same,"Injected dose per gram, Kidney",SK-RC-52.hFAP tumors; 24 h post injection,1.16 % ID/g
same,"Tumor to organs ratio, Kidney",SK-RC-52.hFAP tumors; 48 h,21.4
same,"Injected dose per gram, Kidney",SK-RC-52.hFAP tumors; 48 h post injection,0.78 % ID/g
same,"Tumor to organs ratio, Kidney",SK-RC-52.hFAP tumors; 72 h,24.8
same,"Injected dose per gram, Kidney",SK-RC-52.hFAP tumors; 72 h post injection,0.83 % ID/g
same,"Tumor to organs ratio, Kidney",SK-RC-52.hFAP tumors; 96 h,22
same,"Injected dose per gram, Kidney",SK-RC-52.hFAP tumors; 96 h post injection,0.73 % ID/g
same,"Tumor to organs ratio, Liver",SK-RC-52.hFAP tumors; 6 h,76.3
same,"Injected dose per gram, Liver","SK-RC-52.hFAP tumors; 6 h post injection, 360 min",0.65 % ID/g
same,"Injected dose per gram, Liver",SK-RC-52.hFAP tumors; [2],~ 0.7 % ID/g
same,"Tumor to organs ratio, Liver",SK-RC-52.hFAP tumors; 24 h,43.9
same,"Injected dose per gram, Liver",SK-RC-52.hFAP tumors; 24 h post injection,0.46 % ID/g
same,"Tumor to organs ratio, Liver",SK-RC-52.hFAP tumors; 48 h,56.2
same,"Injected dose per gram, Liver",SK-RC-52.hFAP tumors; 48 h post injection,0.31 % ID/g
same,"Tumor to organs ratio, Liver",SK-RC-52.hFAP tumors; 72 h,1294.6
same,"Injected dose per gram, Liver",SK-RC-52.hFAP tumors; 72 h post injection,0.34 % ID/g
same,"Tumor to organs ratio, Liver",SK-RC-52.hFAP tumors; 96 h,41
same,"Injected dose per gram, Liver",SK-RC-52.hFAP tumors; 96 h post injection,0.40 % ID/g
same,"Tumor to organs ratio, Lung",SK-RC-52.hFAP tumors; 6 h,128.8
same,"Injected dose per gram, Lung",SK-RC-52.hFAP tumors; 6 h post injection,0.38 % ID/g
same,"Tumor to organs ratio, Lung",SK-RC-52.hFAP tumors; 24 h,196.9
same,"Injected dose per gram, Lung",SK-RC-52.hFAP tumors; 24 h post injection,0.10 % ID/g
same,"Tumor to organs ratio, Lung",SK-RC-52.hFAP tumors; 48 h,299.5
same,"Injected dose per gram, Lung",SK-RC-52.hFAP tumors; 48 h post injection,0.06 % ID/g
same,"Tumor to organs ratio, Lung",SK-RC-52.hFAP tumors; 72 h,477.1
same,"Injected dose per gram, Lung",SK-RC-52.hFAP tumors; 72 h post injection,0.11 % ID/g
same,"Tumor to organs ratio, Lung",SK-RC-52.hFAP tumors; 96 h,344
same,"Injected dose per gram, Lung",SK-RC-52.hFAP tumors; 96 h post injection,0.06 % ID/g
same,"Tumor to organs ratio, Muscle",SK-RC-52.hFAP tumors; 6 h,187.0
same,"Injected dose per gram, Muscle",SK-RC-52.hFAP tumors; 6 h post injection,0.45 % ID/g
same,"Tumor to organs ratio, Muscle",SK-RC-52.hFAP tumors; 24 h,159.9
same,"Injected dose per gram, Muscle",SK-RC-52.hFAP tumors; 24 h post injection,0.18 % ID/g
same,"Tumor to organs ratio, Muscle",SK-RC-52.hFAP tumors; 48 h,1095.4
same,"Injected dose per gram, Muscle",SK-RC-52.hFAP tumors; 48 h post injection,0.04 % ID/g
same,"Tumor to organs ratio, Muscle",SK-RC-52.hFAP tumors; 72 h,536.6
same,"Injected dose per gram, Muscle",SK-RC-52.hFAP tumors; 72 h post injection,0.04 % ID/g
same,"Tumor to organs ratio, Muscle",SK-RC-52.hFAP tumors; 96 h,514
same,"Injected dose per gram, Muscle",SK-RC-52.hFAP tumors; 96 h post injection,0.03 % ID/g
same,"Tumor to organs ratio, Spleen",SK-RC-52.hFAP tumors; 6 h,196.0
same,"Injected dose per gram, Spleen","SK-RC-52.hFAP tumors; 6 h post injection, 360 min",0.30 % ID/g
same,"Injected dose per gram, Spleen",SK-RC-52.hFAP tumors; [2],~ 0.3 % ID/g
same,"Tumor to organs ratio, Spleen",SK-RC-52.hFAP tumors; 24 h,384.4
same,"Injected dose per gram, Spleen",SK-RC-52.hFAP tumors; 24 h post injection,0.16 % ID/g
same,"Tumor to organs ratio, Spleen",SK-RC-52.hFAP tumors; 48 h,244.8
same,"Injected dose per gram, Spleen",SK-RC-52.hFAP tumors; 48 h post injection,0.10 % ID/g
same,"Tumor to organs ratio, Spleen",SK-RC-52.hFAP tumors; 72 h,92.1
same,"Injected dose per gram, Spleen",SK-RC-52.hFAP tumors; 72 h post injection,0.24 % ID/g
same,"Tumor to organs ratio, Spleen",SK-RC-52.hFAP tumors; 96 h,69
same,"Injected dose per gram, Spleen",SK-RC-52.hFAP tumors; 96 h post injection,0.24 % ID/g
same,"Tumor to organs ratio, Tail",SK-RC-52.hFAP tumors; 6 h,48.4
same,"Injected dose per gram, Tail",SK-RC-52.hFAP tumors; 6 h post injection,1.06 % ID/g
same,"Tumor to organs ratio, Tail",SK-RC-52.hFAP tumors; 24 h,65.3
same,"Injected dose per gram, Tail",SK-RC-52.hFAP tumors; 24 h post injection,0.31 % ID/g
same,"Tumor to organs ratio, Tail",SK-RC-52.hFAP tumors; 48 h,136.9
same,"Injected dose per gram, Tail",SK-RC-52.hFAP tumors; 48 h post injection,0.14 % ID/g
same,"Tumor to organs ratio, Tail",SK-RC-52.hFAP tumors; 72 h,108.9
same,"Injected dose per gram, Tail",SK-RC-52.hFAP tumors; 72 h post injection,0.19 % ID/g
same,"Tumor to organs ratio, Tail",SK-RC-52.hFAP tumors; 96 h,98
same,"Injected dose per gram, Tail",SK-RC-52.hFAP tumors; 96 h post injection,0.17 % ID/g
same,"Injected dose per gram, Tumor","SK-RC-52.hFAP tumors; 6 h post injection, 360 min",48.96 % ID/g
same,"Injected dose per gram, Tumor",SK-RC-52.hFAP tumors; [2],~ 49 % ID/g
same,"Injected dose per gram, Tumor",SK-RC-52.hFAP tumors; 24 h post injection,19.78 % ID/g
same,"Injected dose per gram, Tumor",SK-RC-52.hFAP tumors; 48 h post injection,16.64 % ID/g
same,"Injected dose per gram, Tumor",SK-RC-52.hFAP tumors; 72 h post injection,20.19 % ID/g
same,"Injected dose per gram, Tumor",SK-RC-52.hFAP tumors; 96 h post injection,16.26 % ID/g
same,"tumor uptake / biodistribution profile, in words",SK-RC-52.hFAP tumors,best biodistribution profile
same,"tolerability (body weight change), in words",[1],very well tolerated

# From patent publication US20260364214A1, “MULTIVALENT FIBROBLAST ACTIVATION PROTEIN LIGANDS FOR TARGETED DELIVERY APPLICATIONS” (Philochem AG, priority 2022, published 2026)
